The values below come from patent US9216968B2, “Heterocyclic derivative and pharmaceutical drug” (NIPPON SHINYAKU CO., LTD., priority 2011, dated 2015).

Structures can show the parent of a compound that is named as a salt.

The subject of one test is A549 cells. Briefly: Inhibition of PGE2 production in A549 cell (IL-1β stimulated). Conditions: Homo sapiens, A549, 24 h, IL-1β 5 ng/well, PGE2 in culture medium. The class given is cell-based, human. In outline:
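A549 cells preincubated 60 min with compound in RPMI/3% FBS (final DMSO 0.10), then stimulated with IL-1β (5 ng/well) for 24 h at 37 °C. PGE2 measured by HTRF and PGF2α by EIA in medium; IC50 from inhibition relative to stimulated minus unstimulated production.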

In another test the target is human mPGES-1 (Homo sapiens (Human), UniProt O14684). Nature of the test: mPGES-1 inhibiting activity (microsome fractions, PGE2 by HTRF). The class given is biochemical. The note with it: microsomes from CHO-K1 cells transfected with human mPGES-1; PGH2 1 μM, 4° C., 60 seconds; read-out: mPGES-1 Inhibition IC50. Put shortly: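 PGE2 formation read by HTRF after 60 s at 4 °C with 1 μM PGH2 substrate, following 20 min compound preincubation (1% DMSO) with human mPGES-1 microsomes from transfected CHO-K1 cells. Buffer: potassium phosphate, reduced glutathione, pH 7.4; IC50 from activity relative to enzyme-free blank.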
Chain of human mPGES-1 (O14684 whole entry): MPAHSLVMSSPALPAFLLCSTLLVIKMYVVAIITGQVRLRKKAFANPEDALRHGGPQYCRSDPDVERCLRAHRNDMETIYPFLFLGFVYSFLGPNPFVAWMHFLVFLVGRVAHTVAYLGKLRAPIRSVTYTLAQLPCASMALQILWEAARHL

With `Cc1c(Cl)cccc1NC(=O)c1cc(NC(=O)c2ccccc2C(F)(F)F)cc2[nH]c(NC3CCCC3)nc12` [Example 141, N-(3-Chloro-2-methylphenyl)-2-(cyclopentylamino)-6-({[2-(trifluoromethyl)phenyl]carbonyl}amino)-1H-benzimidazole-4-carboxamide hydrochloride], the IC50 (in general, the point on the concentration scale where inhibition reaches its midpoint) in the test with A549 cells is 36.5 nM; on human mPGES-1, 0.4 nM.
The matching figures for `Cc1c(Cl)cccc1NC(=O)c1cc(NC(=O)c2ccccc2C(F)(F)F)cc2[nH]c(NC[C@@H]3CCCO3)nc12` [Example 168, N-(3-Chloro-2-methylphenyl)-2-{[(2S)-tetrahydrofuran-2-ylmethyl]amino}-6-({[2-(trifluoromethyl)phenyl]carbonyl}amino)-1H-benzimidazole-4-carboxamide hydrochloride]: 23.9 nM and 3.2 nM.
For `COCc1nc2c(C(=O)Nc3cccc(Br)c3C)cc(NC(=O)c3ccccc3C(F)(F)F)cc2[nH]1` [Example 38, N-(3-Bromo-2-methylphenyl)-2-(methoxymethyl)-6-({[2-(trifluoromethyl)phenyl]carbonyl}amino)-1H-benzimidazole-4-carboxamide], in that order: 17.4 nM and 6.6 nM.
For `Cc1c(Cl)cccc1NC(=O)c1cc(NC(=O)c2c(F)cccc2Cl)cc2[nH]c(NC[C@H]3CCCO3)nc12` [Example 199, 6-{[(2-Chloro-6-fluorophenyl)-carbonyl]amino}-N-(3-chloro-2-methylphenyl)-2-{[(2R)-tetrahydrofuran-2-ylmethyl]amino}-1H-benzimidazole-4-carboxamide hydrochloride], in that order: 43.2 nM and 9.7 nM.
As to `COCC(C)(C)CN(C)c1nc2c(C(=O)Nc3cccc(Cl)c3C)cc(NC(=O)c3ccccc3C(F)(F)F)cc2[nH]1` [Example 173, N-(3-Chloro-2-methylphenyl)-2-[(3-methoxy-2,2-dimethylpropyl)(methyl)amino]-6-({[2-(trifluoromethyl)phenyl]carbonyl}amino)-1H-benzimidazole-4-carboxamide hydrochloride], the IC50 with A549 cells was 60.8 nM; at human mPGES-1, 1.1 nM.
As for `COCC(C)(C)c1nc2c(C(=O)Nc3cccc(Cl)c3C)cc(NC(=O)c3ccccc3C(F)(F)F)cc2[nH]1` [Example 75, N-(3-Chloro-2-methylphenyl)-2-(1-methoxy-2-methylpropan-2-yl)-6-({[2-(trifluoromethyl)phenyl]carbonyl}amino)-1H-benzimidazole-4-carboxamide hydrochloride], the IC50 in the test with A549 cells turned out to be 19.7 nM; at human mPGES-1, 31.7 nM.
Consider `COCc1nc2c(C(=O)Nc3ccc(C)c(C)c3)cc(NC(=O)c3ccccc3C(F)(F)F)cc2[nH]1` [Example 31, N-(3,4-Dimethylphenyl)-2-(methoxymethyl)-6-({[2-(trifluoromethyl)phenyl]carbonyl}amino)-1H-benzimidazole-4-carboxamide hydrochloride], for which the IC50 is 69 nM with A549 cells and 4.1 nM at human mPGES-1.
As to `Cc1c(Cl)cccc1NC(=O)c1cc(NC(=O)c2ccccc2C(F)(F)F)cc2[nH]c(C3(C)CC3)nc12` [Example 85, N-(3-chloro-2-methylphenyl)-2-(1-methylcyclopropyl)-6-({[2-(trifluoromethyl)phenyl]carbonyl}amino)-1H-benzimidazole-4-carboxamide], the IC50 in the test with A549 cells was found to be 3.7 nM; on human mPGES-1, 0.5 nM.
The matching figures for `COCc1nc2c(C(=O)Nc3cccc(Cl)c3C)cc(NC(=O)c3ccccc3Br)cc2[nH]1` [Example 97, 6-{[(2-Bromophenyl)carbonyl]amino}-N-(3-chloro-2-methylphenyl)-2-(methoxymethyl)-1H-benzimidazole-4-carboxamide hydrochloride]: 43.1 nM and 6.1 nM.
As for `Cc1c(Cl)cccc1NC(=O)c1cc(NC(=O)c2ccccc2C(F)(F)F)cc2[nH]c(NCC(C)(C)CN(C)C)nc12` [Example 154, N-(3-Chloro-2-methylphenyl)-2-{[3-(dimethylamino)-2,2-dimethylpropyl]amino}-6-({[2-(trifluoromethyl)phenyl]carbonyl}amino)-1H-benzimidazole-4-carboxamide hydrochloride], the IC50 in the test on A549 cells came to 64.4 nM; on human mPGES-1, 20 nM.
Regarding `COCc1nc2c(C(=O)Nc3cccc(Cl)c3C)cc(NC(=O)c3c(Cl)cccc3C(F)(F)F)cc2[nH]1` [Example 113, N-(3-Chloro-2-methylphenyl)-6-({[2-chloro-6-(trifluoromethyl)phenyl]carbonyl}amino)-2-(methoxymethyl)-1H-benzimidazole-4-carboxamide hydrochloride], the IC50 was 1.2 nM with A549 cells and ≤ 0.1 nM on human mPGES-1.
On to `Cc1c(Cl)cccc1NC(=O)c1cc(NC(=O)c2ccccc2C(F)(F)F)cc2[nH]c(NCC(C)(C)O)nc12` [Example 167, N-(3-Chloro-2-methylphenyl)-2-[(2-hydroxy-2-methylpropyl)amino]-6-({[2-(trifluoromethyl)phenyl]carbonyl}amino)-1H-benz imidazole-4-carboxamide hydrochloride], for which the figures for the IC50 with A549 cells and at human mPGES-1 were 217 nM and 1 nM, respectively.
Regarding `COCc1nc2c(C(=O)Nc3ccc(C)cc3C)cc(NC(=O)c3ccccc3C(F)(F)F)cc2[nH]1` [Example 29, N-(2,4-Dimethylphenyl)-2-(methoxymethyl)-6-({[2-(trifluoromethyl)phenyl]carbonyl}amino)-1H-benzimidazole-4-carboxamide hydrochloride], the IC50 in the test with A549 cells stood at 85.5 nM; on human mPGES-1, 3.5 nM.
In the case of `Cc1c(Cl)cccc1NC(=O)c1cc(NC(=O)c2c(F)cccc2Br)cc2[nH]c(N(C)C)nc12` [Example 186, 6-{[(2-Bromo-6-fluorophenyl)carbonyl]amino}-N-(3-chloro-2-methylphenyl)-2-(dimethylamino)-1H-benzimidazole-4-carboxamide hydrochloride], the IC50 with A549 cells stood at 13.9 nM; at human mPGES-1, 6.1 nM.
Take `Cc1c(Cl)cccc1NC(=O)c1cc(NC(=O)c2ccccc2C(F)(F)F)cc2[nH]c(N[C@@H](CO)C(C)C)nc12` [Example 171, N-(3-Chloro-2-methylphenyl)-2-{[(2R)-1-hydroxy-3-methylbutan-2-yl]amino}-6-({[2-(trifluoromethyl)phenyl]carbonyl}amino-1H-benzimidazole-4-carboxamide hydrochloride]: the IC50 in the test on A549 cells stood at 97.8 nM; on human mPGES-1, 4.7 nM.
In the case of `COCc1nc2c(C(=O)Nc3cccc(Cl)c3C)cc(NC(=O)c3cc(CCc4ccccc4)ccc3Cl)cc2[nH]1` [Example 123, N-(3-Chloro-2-methylphenyl)-6-({[2-chloro-5-(2-phenylethyl)phenyl]carbonyl}amino)-2-(methoxymethyl)-1H-benzimidazole-4-carboxamide hydrochloride], the results for the IC50 in the test with A549 cells and on human mPGES-1 were 99.8 nM and 8.7 nM, respectively.
For `CCOCCOCc1ccc(Cl)c(C(=O)Nc2cc(C(=O)Nc3cccc(Cl)c3C)c3nc(COC)[nH]c3c2)c1` [Example 121, 6-[({2-Chloro-5-[(2-ethoxyethoxy)methyl]phenyl}carbonyl)amino]-N-(3-chloro-2-methylphenyl)-2-(methoxymethyl)-1H-benzimidazole-4-carboxamide hydrochloride], the IC50 worked out at 432 nM with A549 cells and 6.3 nM on human mPGES-1.
The matching figures for `CCc1nc2c(C(=O)NCc3ccccc3C(F)(F)F)cc(NC(=O)c3ccccc3C(F)(F)F)cc2[nH]1` [Example 19, 2-Ethyl-N-[2-(trifluoromethyl)benzyl]-6-({[2-(trifluoromethyl)phenyl]carbonyl}amino)-1H-benzimidazole-4-carboxamide]: 47.8 nM and 9.4 nM.
As for `CCOCc1ccc(Cl)c(C(=O)Nc2cc(C(=O)Nc3cccc(Cl)c3C)c3nc(COC)[nH]c3c2)c1` [Example 120, 6-({[2-Chloro-5-(ethoxymethyl)phenyl]carbonyl}amino)-N-(3-chloro-2-methylphenyl)-2-(methoxymethyl)-1H-benzimidazole-4-carboxamide], the values for the IC50 with A549 cells and on human mPGES-1 were 513 nM and 57.5 nM, respectively.
